Read-outs that look alike come from different tables or passages of the source.
Legend:
[1] = Peripheral blood counts after extended treatment; details: three weeks, with or without anti-PD1
Description: (§2) Animals were subcutaneously engrafted on bilateral flanks with tumor cells (MC38 1×10^6, B16-F10 0.5×10^6 and LLC 0.25×10^6 cells unless otherwise specified) on day 0, and treated continuously with splicing inhibitors (MS-023 50 mg/kg i.p., indisulam 25 mg/kg i.v. or vehicle) daily for 5 of 7 weekly days starting from day +3 of tumor challenge. […] Mice were weighed weekly for weight-based drug dosing.

[2] = tested on: asymmetric dimethyl arginines (ADMA); experiment: ADMA levels by western blot after MS-023; format: cell-based, mouse; details: MC38 cells, 5 μM for 96 hours
Description: (§1) Unless otherwise specified, cell lines were treated with splicing inhibitors at the indicated concentrations for 96 hours in vitro, harvested and washed three times with PBS in excess to remove all drug, and then used for downstream analyses and/or subsequent studies, including phenotyping, RNA-seq analyses, continued growth in vitro, or tumor challenge in vivo into syngeneic animals.
Western blotting was performed as per standard techniques. Anti-RBM39 (Atlas Antibodies, Cat. HPA001591 or Bethyl laboratories, Cat. A300-291A) were used to detect RBM39 degradation. ADMA and SDMA levels were determined using antibodies from Cell Signaling Technologies (Cat. 13222S and Cat. 135225). Actin antibody (clone AC-15) was obtained from MilliporeSigma (Cat. A5441-.2ML). Densitometry of RBM39 and actin loading control was performed using ImageJ software in order to calculate RBM39 degradation IC50 values.

[3] = mouse, in vivo
Description: as §2

[4] = tested on: B16-F10, MC38, and CT26 cells; experiment: In vitro growth after ex vivo indisulam treatment and drug washout; format: cell-based, mouse; details: ex vivo 1 μM for four days followed by drug washout
Description: as §1

[5] = tested on: B16-F10, MC38, and CT26 cells; experiment: In vivo tumor challenge with ex vivo indisulam-treated cells in syngeneic mice; set-up: species or system mouse
Description: as §1
Unless otherwise specified, syngeneic B6 or Balb/c mice were engrafted subcutaneously on bilateral flanks with MC38, B16-F10, CT26 or LLC tumor cells at the following doses: MC38 10^6 cells, B16-F10 0.5×10^6 cells, CT26 0.25×10^6 cells, LLC 0.25×10^6 cells. Tumors were measured serially twice or three times weekly and tumor volumes were estimated by length×width×height. Animals were monitored daily for survival and weighed twice weekly. Experimental endpoints mandating euthanasia were approved by the IACUC and included: animal lethargy, severe kyphosis or evidence of pain, difficulty with ambulation or feeding, tumor ulceration>1 cm or bleeding tumor, evidence of infected tumor, tumor volumes exceeding 2.5 cm^3, or animal total body weight loss>10% from baseline.

[6] = tested on: lung and colonic tissue, splenic T cells; experiment: RNA-seq of non-tumor tissues from indisulam-treated animals; format: in vivo, mouse
Description: Bulk lung and colon were homogenized using a Qiagen TissueRuptor. For all tissues and cell types, RNA was extracted using an RNeasy kit (Qiagen, Frederick, Md.) and quantified using a NanoDrop 8000 (ThermoFisher Scientific). A minimum of 500 ng of high-quality RNA (as determined by Agilent Bioanalyzer) per sample or replicate was used for library preparation. Poly(A)-selected, strand-specific (dUTP method) Illumina libraries were prepared with a modified TruSeq protocol and sequenced on the Illumina HiSeq 2000 (˜100M 2×101 bp paired-end reads per sample or replicate).
RNA-seq analysis was performed as previously described (Dvinge, H., et al. (2014). Sample processing obscures cancer-specific alterations in leukemic transcriptomes. Proc Natl Acad Sci USA 111, 16802-16807, incorporated herein by reference in its entirety). […] Aligned reads from these two mapping steps were merged to generate final BAM files for all subsequent analyses.
MISO v2.0 was used to quantify all expression of isoforms arising from exon skipping (cassette exons), competing 5′ splice site selection, competing 3′ splice site selection, and annotated intron retention. […]

[7] = tested on: B16-F10, MC38, CT26, and LLC cells; experiment: Cell growth/viability IC50 (CellTiter-Glo); format: cell-based; details: Mus musculus; range across B16-F10, MC38, CT26, LLC cells
Description: Cell lines were grown with half-log10 concentrations of the indicated drug in 4 to 8 technical replicates under standard conditions until the control condition (DMSO or vehicle) was confluent by microscopy. For tumor cell lines, viable cells were quantified via the CellTiter-Glo® assay (Promega Cat. G7573) as per manufacturer instructions. For the ex vivo proliferation of T cells, viable cells were instead quantified via flow cytometry using counting beads. The percentage or number of viable cells with drug treatment was calculated relative to DMSO control (as 100%). […] For absolute cell number, Annexin V+, CD25+, and PD1+ flow cytometry data presented in Figure S4, dose-response models and IC50 values were computed using the R language's dre package (Ritz, C., et al. (2015). Dose-Response Analysis Using R. PLoS One 10, e0146021).

CC(C)Oc1ccc(-c2c[nH]cc2CN(C)CCN)cc1 [MS-023]
lymphocytes, neutrophils, or other peripheral blood counts [1]: negligible effects | asymmetric dimethyl arginines (ADMA) [2]: globally reduced

NS(=O)(=O)c1ccc(S(=O)(=O)Nc2cccc3c(Cl)c[nH]c23)cc1 [indisulam]
lymphocytes, neutrophils, or other peripheral blood counts [3]: negligible effects | subsequent cell proliferation or apoptosis [4]: minimal effects | tumor growth following engraftment into syngeneic, immunocompetent mice ([5]; cells treated ex vivo 1 μM four days, drug washout): strikingly durable growth inhibition | animal survival ([5]; exposure to increasing drug concentrations (CT26; 10, 100, 1000 nM, 96 hours)): improved animal survival | splicing changes in lung, colonic tissue and splenic T cells [6]: only mild changes in splicing | IC50 [7]: 2.1 to 73 µM

— US20230190707A1, “COMPOSITIONS AND METHODS FOR ENHANCING CANCER IMMUNOTHERAPY” (FRED HUTCHINSON CANCER CENTER, priority 2020, published 2023)
